Laboratory results from patent publication US6355799B1, “Substituted benzene compounds, process for their preparation, and herbicidal and defoliant compositions containing them” (ISK Americas Incorporated, priority 1997, dated 2002).

How the values were obtained:
Type in all cases: in vivo
[1] = system: upland rice (Oryza sp., var. Tebonnet, RICE); test: Pre-emerge test, crop safety; details: for phytotoxicity rating RICE (crop damage): pre-emerge, 14 days after application, scale 0-100
Summary of the method: (§1)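 Fourteen days after spraying, crop and weed injury was graded visually from 0, no effect, to 100, every plant dead. Test substances were dissolved in acetone and applied at 15–1000 g ai/ha with a flat-fan nozzle. Application was either pre-emergence, one day after sowing, or post-emergence at the 2–3 leaf stage.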

[2] = system: field corn (Zea mays L., var. Dekalb 535, CORN); test: Pre-emerge test, crop safety; details: for phytotoxicity rating CORN (crop damage): pre-emerge, 14 days after application, scale 0-100
Summary of the method: as §1

[3] = system: upland rice (Oryza sp., var. Tebonnet, RICE); test: Post-emerge test, crop safety; details: post-emerge, 14 days after application, rating scale 0-100
Summary of the method: (§2)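 Visual ratings on a 0-100 scale (0 no damage, 100 all plants dead) were taken at 14 days after treatment. Rates of 15-1000 g ai/ha in acetone, 187 l/ha, were sprayed onto soil one day after planting (pre-emerge) or onto 2-3 leaf plants with 0.25% v/v surfactant (post-emerge).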

[4] = system: field corn (Zea mays L., var. Dekalb 535, CORN); test: Post-emerge test, crop safety; details: post-emerge, 14 days after application, rating scale 0-100
Summary of the method: as §2

[5] = system: johnsongrass (Sorghum halepense, SORHA); test: Pre-emerge test, greenhouse herbicide activity screening; details: for phytotoxicity rating SORHA: pre-emerge, 14 days after application, scale 0-100
Summary of the method: as §2

[6] = system: large crabgrass (Digitaria sanguinalis, DIGSA); test: as above; details: for phytotoxicity rating DIGSA: pre-emerge, 14 days after application, scale 0-100
Summary of the method: as §2

[7] = system: barnyardgrass (Echinochloa crus-galli, ECHCG); test: as above; details: for phytotoxicity rating ECHCG: pre-emerge, 14 days after application, scale 0-100
Summary of the method: as §2

[8] = system: green foxtail (Setaria viridis, SETVI); test: as above; details: for phytotoxicity rating SETVI: pre-emerge, 14 days after application, scale 0-100
Summary of the method: as §2

[9] = system: sicklepod (Cassia obtusifolia, CASOB); test: as above; details: for phytotoxicity rating CASOB: pre-emerge, 14 days after application, scale 0-100
Summary of the method: as §2

[10] = system: ivyleaf morningglory (Ipomoea hederacea, IPOHE); test: as above; details: for phytotoxicity rating IPOHE: pre-emerge, 14 days after application, scale 0-100
Summary of the method: as §2

[11] = system: velvetleaf (Abutilon theophrasti, ABUTH); test: as above; details: for phytotoxicity rating ABUTH: pre-emerge, 14 days after application, scale 0-100
Summary of the method: as §2

[12] = system: lambsquarters (Chenopodium album, CHEAL); test: as above; details: for phytotoxicity rating CHEAL: pre-emerge, 14 days after application, scale 0-100
Summary of the method: as §2

[13] = system: redroot pigweed (Amaranthus retroflexus, AMARE); test: as above; details: for phytotoxicity rating AMARE: pre-emerge, 14 days after application, scale 0-100
Summary of the method: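 Herbicidal damage is scored 0 (none) to 100 (complete plant death) two weeks after a simulated field spray. Rates span 15–1000 g ai/ha, delivered in acetone at 187 l/ha. For post-emergence treatments, plants have 2–3 leaves and the spray carries 0.25% v/v non-ionic surfactant.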

[14] = system: redroot pigweed (Amaranthus retroflexus, AMARE); test: Post-emerge test, greenhouse herbicide activity screening; details: post-emerge, 14 days after application, rating scale 0-100
Summary of the method: (§3)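 Compounds in acetone were track-sprayed at 15-1000 g ai/ha (187 l/ha) on sandy loam pots: pre-emerge one day after seeding, post-emerge at 2-3 leaf stage with 0.25% v/v non-ionic surfactant. Phytotoxicity was rated 14 days later on a 0 (no damage) to 100 (complete death) scale.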

[15] = system: large crabgrass (Digitaria sanguinalis, DIGSA); test: as above; details: post-emerge, 14 days after application, rating scale 0-100
Summary of the method: as §3

[16] = system: barnyardgrass (Echinochloa crus-galli, ECHCG); test: as above; details: post-emerge, 14 days after application, rating scale 0-100
Summary of the method: as §3

[17] = system: green foxtail (Setaria viridis, SETVI); test: as above; details: post-emerge, 14 days after application, rating scale 0-100
Summary of the method: as §3

[18] = system: sicklepod (Cassia obtusifolia, CASOB); test: as above; details: post-emerge, 14 days after application, rating scale 0-100
Summary of the method: as §3

[19] = system: ivyleaf morningglory (Ipomoea hederacea, IPOHE); test: as above; details: post-emerge, 14 days after application, rating scale 0-100
Summary of the method: as §3

[20] = system: velvetleaf (Abutilon theophrasti, ABUTH); test: as above; details: post-emerge, 14 days after application, rating scale 0-100
Summary of the method: as §3

[21] = system: lambsquarters (Chenopodium album, CHEAL); test: as above; details: post-emerge, 14 days after application, rating scale 0-100
Summary of the method: as §3

[22] = 250 g ai/ha, crop damage rating 0-100, 14 days after application
[23] = 250 g ai/ha, phytotoxicity rating 0-100, 14 days after application

## Cn1c(C(F)(F)F)cc(=O)n(-c2ccc(C#N)cc2NC(=O)c2ccc3ccccc3c2)c1=O [2-140]
[1]; 63 g ai/ha
  phytotoxicity rating RICE (crop damage): 30
[1]; 250 g ai/ha
  phytotoxicity rating RICE (crop damage): 85
[2]; 63 g ai/ha
  phytotoxicity rating CORN (crop damage): 0
[2]; 250 g ai/ha
  phytotoxicity rating CORN (crop damage): 15
[3]; 63 g ai/ha
  RICE phytotoxicity rating (crop damage): 50
[3]; 250 g ai/ha
  RICE phytotoxicity rating (crop damage): 80
[4]; 63 g ai/ha
  CORN phytotoxicity rating (crop damage): 10
[4]; 250 g ai/ha
  CORN phytotoxicity rating (crop damage): 70
[5]; 63 g ai/ha
  phytotoxicity rating SORHA: 10
[5]; 250 g ai/ha
  phytotoxicity rating SORHA: 60
[6]; 63 g ai/ha
  phytotoxicity rating DIGSA: 40
[6]; 250 g ai/ha
  phytotoxicity rating DIGSA: 95
[7]; 63 g ai/ha
  phytotoxicity rating ECHCG: 40
[7]; 250 g ai/ha
  phytotoxicity rating ECHCG: 80
[8]; 63 g ai/ha
  phytotoxicity rating SETVI: 50
[8]; 250 g ai/ha
  phytotoxicity rating SETVI: 80
[9]; 63 g ai/ha
  phytotoxicity rating CASOB: 40
[9]; 250 g ai/ha
  phytotoxicity rating CASOB: 100
[10]; 63 g ai/ha
  phytotoxicity rating IPOHE: 10
[10]; 250 g ai/ha
  phytotoxicity rating IPOHE: 100
[11]; 63 g ai/ha
  phytotoxicity rating ABUTH: 100
[11]; 250 g ai/ha
  phytotoxicity rating ABUTH: 100
[12]; 63 g ai/ha
  phytotoxicity rating CHEAL: 100
[12]; 250 g ai/ha
  phytotoxicity rating CHEAL: 100
[13]; 63 g ai/ha
  phytotoxicity rating AMARE: 100
[13]; 250 g ai/ha
  phytotoxicity rating AMARE: 100
[14]; 63 g ai/ha
  AMARE phytotoxicity rating: 100
[14]; 250 g ai/ha
  AMARE phytotoxicity rating: 100
[15]; 63 g ai/ha
  DIGSA phytotoxicity rating: 20
[15]; 250 g ai/ha
  DIGSA phytotoxicity rating: 65
[16]; 63 g ai/ha
  ECHCG phytotoxicity rating: 30
[16]; 250 g ai/ha
  ECHCG phytotoxicity rating: 85
[17]; 63 g ai/ha
  SETVI phytotoxicity rating: 40
[17]; 250 g ai/ha
  SETVI phytotoxicity rating: 60
[18]; 63 g ai/ha
  CASOB phytotoxicity rating: 100
[18]; 250 g ai/ha
  CASOB phytotoxicity rating: 100
[19]; 63 g ai/ha
  IPOHE phytotoxicity rating: 100
[19]; 250 g ai/ha
  IPOHE phytotoxicity rating: 100
[20]; 63 g ai/ha
  ABUTH phytotoxicity rating: 100
[20]; 250 g ai/ha
  ABUTH phytotoxicity rating: 100
[21]; 63 g ai/ha
  CHEAL phytotoxicity rating: 100
[21]; 250 g ai/ha
  CHEAL phytotoxicity rating: 100

## N#CCOc1c(Cl)cc(F)c(-n2c(=O)cc(C(F)(F)F)n(N)c2=O)c1NC(=O)c1ccc2ccccc2c1 [2-188]
[1]; [22]
  Pre-emerge Herbicidal Activity RICE: 10
[1]; 63 g ai/ha
  phytotoxicity rating RICE (crop damage): 10
[2]; [22]
  Pre-emerge Herbicidal Activity CORN: 0
[2]; 63 g ai/ha
  phytotoxicity rating CORN (crop damage): 0
[3]; 63 g ai/ha
  RICE phytotoxicity rating (crop damage): 20
[3]; 250 g ai/ha
  RICE phytotoxicity rating (crop damage): 40
[4]; 63 g ai/ha
  CORN phytotoxicity rating (crop damage): 25
[4]; 250 g ai/ha
  CORN phytotoxicity rating (crop damage): 45
[5]; [23]
  Pre-emerge Herbicidal Activity SORHA: 30
[5]; 63 g ai/ha
  phytotoxicity rating SORHA: 10
[6]; [23]
  Pre-emerge Herbicidal Activity DIGSA: 60
[6]; 63 g ai/ha
  phytotoxicity rating DIGSA: 10
[7]; [23]
  Pre-emerge Herbicidal Activity ECHCG: 60
[7]; 63 g ai/ha
  phytotoxicity rating ECHCG: 30
[8]; [23]
  Pre-emerge Herbicidal Activity SETVI: 50
[8]; 63 g ai/ha
  phytotoxicity rating SETVI: 30
[9]; [23]
  Pre-emerge Herbicidal Activity CASOB: 0
[9]; 63 g ai/ha
  phytotoxicity rating CASOB: 0
[10]; [23]
  Pre-emerge Herbicidal Activity IPOHE: 90
[10]; 63 g ai/ha
  phytotoxicity rating IPOHE: 10
[11]; [23]
  Pre-emerge Herbicidal Activity ABUTH: 100
[11]; 63 g ai/ha
  phytotoxicity rating ABUTH: 90
[12]; [23]
  Pre-emerge Herbicidal Activity CHEAL: 100
[12]; 63 g ai/ha
  phytotoxicity rating CHEAL: 100
[13]; [23]
  Pre-emerge Herbicidal Activity AMARE: 80
[13]; 63 g ai/ha
  phytotoxicity rating AMARE: 100
[14]; 63 g ai/ha
  AMARE phytotoxicity rating: 85
[14]; 250 g ai/ha
  AMARE phytotoxicity rating: 90
[15]; 63 g ai/ha
  DIGSA phytotoxicity rating: 0
[15]; 250 g ai/ha
  DIGSA phytotoxicity rating: 10
[16]; 63 g ai/ha
  ECHCG phytotoxicity rating: 30
[16]; 250 g ai/ha
  ECHCG phytotoxicity rating: 40
[17]; 63 g ai/ha
  SETVI phytotoxicity rating: 10
[17]; 250 g ai/ha
  SETVI phytotoxicity rating: 20
[18]; 63 g ai/ha
  CASOB phytotoxicity rating: 55
[18]; 250 g ai/ha
  CASOB phytotoxicity rating: 90
[19]; 63 g ai/ha
  IPOHE phytotoxicity rating: 100
[19]; 250 g ai/ha
  IPOHE phytotoxicity rating: 100
[20]; 63 g ai/ha
  ABUTH phytotoxicity rating: 100
[20]; 250 g ai/ha
  ABUTH phytotoxicity rating: 100
[21]; 63 g ai/ha
  CHEAL phytotoxicity rating: 80
[21]; 250 g ai/ha
  CHEAL phytotoxicity rating: 100
